Reference: ChEMBL document CHEMBL3826909, “Quinoxaline-based inhibitors of Ebola and Marburg VP40 egress” (Bioorg Med Chem Lett, 2016)
Activity calls are given as the source filed them. The calls are words filed in the database; no cut-off is given here.

Columns and labels:
[1] = target: T1, Matrix protein VP40 (Lake Victoria marburgvirus (strain Ravn-87) (MARV) (Marburg virus (strainKenya/Ravn/1987))) (UniProt Q1PDC8); experiment: Inhibition of Marburg virus VP40 PPxY L-domain motif expressed in HEK293T cells assessed as reduction in VLP budding at 0.1 uM relative to control; format: cell-based; settings: HEK-293T
T1 sequence (whole entry): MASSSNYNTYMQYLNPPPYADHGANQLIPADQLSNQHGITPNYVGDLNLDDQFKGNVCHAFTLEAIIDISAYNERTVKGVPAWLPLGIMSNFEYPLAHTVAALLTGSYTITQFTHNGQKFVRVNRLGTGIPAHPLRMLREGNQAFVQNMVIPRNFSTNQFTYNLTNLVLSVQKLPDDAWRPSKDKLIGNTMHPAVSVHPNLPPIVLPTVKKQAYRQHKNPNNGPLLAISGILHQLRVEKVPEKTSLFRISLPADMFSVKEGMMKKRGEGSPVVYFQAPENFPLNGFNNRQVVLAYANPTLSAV

[2] = target: T1, Matrix protein VP40 (Lake Victoria marburgvirus (strain Ravn-87) (MARV) (Marburg virus (strainKenya/Ravn/1987))); experiment: Inhibition of Marburg virus VP40 PPxY L-domain motif expressed in HEK293T cells assessed as reduction in VLP budding at 1 uM relative to control; format: cell-based; settings: HEK-293T
[3] = target: T1, Matrix protein VP40 (Lake Victoria marburgvirus (strain Ravn-87) (MARV) (Marburg virus (strainKenya/Ravn/1987))); experiment: Inhibition of Marburg virus VP40 PPxY L-domain motif expressed in HEK293T cells assessed as reduction in VLP budding at 0.03 uM relative to control; format: cell-based; settings: HEK-293T
[4] = target: T1, Matrix protein VP40 (Lake Victoria marburgvirus (strain Ravn-87) (MARV) (Marburg virus (strainKenya/Ravn/1987))); experiment: Inhibition of Marburg virus VP40 PPxY L-domain motif expressed in HEK293T cells assessed as reduction in VLP budding at 0.3 uM relative to control; format: cell-based; settings: HEK-293T
[5] = test system: Vesicular stomatitis virus; experiment: Effect on viral protein levels in recombinant Vesicular stomatitis virus-M40 expressing Ebola virus VP40 PPxY L-domain motif infected in HEK293T cells at 30 to 100 nM after 8 hrs by Western blot analysis relative to control; format: ADME, organism-based; settings: hek-293t, 0.1 µM
[6] = Cytotoxicity against African green monkey Vero E6 cells assessed as cell viability at 0.01 uM after 24 hrs by MTT assay relative to control; format: cell-based; settings: chlorocebus sabaeus, read-out: Activity
[7] = test system: Liver microsome; experiment: Half life in human liver microsomes; format: ADME
[8] = Cytotoxicity against African green monkey Vero E6 cells assessed as cell viability at 10 uM after 24 hrs by MTT assay relative to control; format: cell-based; settings: chlorocebus sabaeus, read-out: Activity
[9] = Cytotoxicity against African green monkey Vero E6 cells assessed as cell viability at 0.1 uM after 24 hrs by MTT assay relative to control; format: cell-based; settings: chlorocebus sabaeus, read-out: Activity
[10] = Cytotoxicity against human HEK293T cells assessed as cell viability at 1 uM after 24 hrs by MTT assay relative to control; format: cell-based, HEK-293T; settings: read-out: Activity
[11] = Cytotoxicity against human HEK293T cells assessed as cell viability at 10 uM after 24 hrs by MTT assay relative to control; format: cell-based, HEK-293T; settings: read-out: Activity
[12] = Cytotoxicity against human HEK293T cells assessed as cell viability at 0.01 uM after 24 hrs by MTT assay relative to control; format: cell-based, HEK-293T; settings: read-out: Activity
[13] = test system: Liver microsome; experiment: Intrinsic clearance in human liver microsomes assessed per mg of protein; format: ADME
[14] = Half life in mouse liver microsomes; format: ADME
[15] = Cytotoxicity against African green monkey Vero E6 cells assessed as cell viability at 1 uM after 24 hrs by MTT assay relative to control; format: cell-based; settings: chlorocebus sabaeus, read-out: Activity
[16] = Cytotoxicity against human HEK293T cells assessed as cell viability at 0.1 uM after 24 hrs by MTT assay relative to control; format: cell-based, HEK-293T; settings: read-out: Activity
[17] = Effect on cellular protein levels in human HEK293T cells infected with recombinant Vesicular stomatitis virus-M40 expressing Ebola virus VP40 PPxY L-domain motif at 30 to 100 nM after 8 hrs by Western blot analysis relative to control; format: ADME, cell-based; settings: hek-293t, 0.1 µM
[18] = target: Cytochrome P450 3A4 (Homo sapiens, UniProt P08684); experiment: Inhibition of CYP3A4 (unknown origin) using midazolam as substrate; format: ADME
Cytochrome P450 3A4, sequence (P08684 whole entry): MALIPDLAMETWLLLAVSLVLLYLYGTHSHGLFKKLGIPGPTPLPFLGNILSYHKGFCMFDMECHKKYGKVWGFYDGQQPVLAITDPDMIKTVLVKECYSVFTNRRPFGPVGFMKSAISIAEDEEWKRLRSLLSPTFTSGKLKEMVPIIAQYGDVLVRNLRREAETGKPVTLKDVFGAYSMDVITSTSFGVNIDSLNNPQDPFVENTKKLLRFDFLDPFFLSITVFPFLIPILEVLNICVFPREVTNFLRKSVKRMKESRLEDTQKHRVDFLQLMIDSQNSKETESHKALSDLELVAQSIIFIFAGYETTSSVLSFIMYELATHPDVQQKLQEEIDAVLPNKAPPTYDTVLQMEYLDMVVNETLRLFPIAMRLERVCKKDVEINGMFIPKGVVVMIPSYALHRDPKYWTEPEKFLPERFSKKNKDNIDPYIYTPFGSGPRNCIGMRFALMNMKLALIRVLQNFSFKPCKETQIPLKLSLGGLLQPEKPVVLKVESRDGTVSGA

[19] = target: T1, Matrix protein VP40 (Lake Victoria marburgvirus (strain Ravn-87) (MARV) (Marburg virus (strainKenya/Ravn/1987))); experiment: Inhibition of Marburg virus VP40 PPxY L-domain motif-Nedd4 interaction in HEK293T cells coexpressing NYFP-Nedd4 and CYFP-mVP40 at 0.1 uM by inverted confocal microscopy based bimolecular complementation assay; format: cell-based; settings: HEK-293T
[20] = target: T1, Matrix protein VP40 (Lake Victoria marburgvirus (strain Ravn-87) (MARV) (Marburg virus (strainKenya/Ravn/1987))); experiment: Inhibition of Marburg virus VP40 PPxY L-domain motif expressed in HEK293T cells assessed as reduction in VLP budding at 30 nM after 24 hrs by Western blot analysis relative to control; format: cell-based; settings: HEK-293T
[21] = target: T1, Matrix protein VP40 (Lake Victoria marburgvirus (strain Ravn-87) (MARV) (Marburg virus (strainKenya/Ravn/1987))); experiment: Inhibition of Marburg virus VP40 PPxY L-domain motif expressed in HEK293T cells assessed as reduction in VLP budding at 100 nM after 24 hrs by Western blot analysis; format: cell-based; settings: HEK-293T
[22] = target: T1, Matrix protein VP40 (Lake Victoria marburgvirus (strain Ravn-87) (MARV) (Marburg virus (strainKenya/Ravn/1987))); experiment: Inhibition of Marburg virus VP40 PPxY L-domain motif expressed in HEK293T cells assessed as reduction in VLP budding at 25 uM relative to control; format: cell-based; settings: HEK-293T

Row | SMILES | inhibition [1] | inhibition [2] | inhibition [3] | inhibition [4] [%] | other results
1 | Cc1nc2ccccc2nc1SCC(=O)NC(=O)NCc1ccccc1 | 29% | 60% | – | – | –
2 | Cc1nc2ccccc2nc1SCC(=O)NC(=O)Nc1cccnc1 | 44% | 78% | – | – | –
3 | O=C(CSc1cnc2ccccc2n1)NC(=O)Nc1ccccc1F | – | inactive | – | – | –
4 | Cc1nc2ccccc2nc1SCC(=O)NC(=O)Nc1c(C)nn(-c2ccccc2)c1C | – | inactive | – | – | –
5 | Cc1nc2ccccc2nc1SCC(=O)NC(=O)Nc1c(C)n[nH]c1C | – | 50% | – | – | –
6 | COc1ccccc1NC(=O)NC(=O)CSc1nc2ccccc2nc1C | 60% | 96% | inactive | 89 | –
7 | Cc1cccc(C)c1NC(=O)NC(=O)CSc1nc2ccccc2nc1C | – | – | inactive | 100 | –
8 | Cc1nc2ccccc2nc1SCC(=O)NC(=O)Nc1cccc(F)c1C | 100% | – | 86% | – | Activity [5]: Non-toxic; viability at 24 h, 0.01 µM [6]: 102%; t1/2 [7]: > 90 min; viability at 24 h, 10 µM [8]: 84%; viability at 24 h, 0.1 µM [9]: 92.6%; viability at 24 h, 1 µM [10]: 60.1%; viability at 24 h, 10 µM [11]: 63.5%; viability at 24 h, 0.01 µM [12]: 95.1%; Intrinsic clearance [13]: 0.54 mL/min; t1/2 [14]: 3.5 min; viability at 24 h, 1 µM [15]: 78.7%; viability at 24 h, 0.1 µM [16]: 70.4%; Activity [17]: Non-toxic; IC50 [18]: > 33 µM; inhibition [19]: Active
9 | Cc1nc2ccccc2nc1SCC(=O)NC(=O)NCc1cccs1 | inactive | 97% | – | – | –
10 | Cc1ccccc1NC(=O)NC(=O)CSc1nc2ccccc2nc1C | 98% | 100% | 83% | – | viability at 24 h, 0.01 µM [6]: 96.8%; fold change (FC) [20]: 3; t1/2 [7]: 46.6 min; viability at 24 h, 10 µM [8]: 61.7%; viability at 24 h, 0.1 µM [9]: 92.3%; viability at 24 h, 1 µM [10]: 62.8%; viability at 24 h, 10 µM [11]: 60.5%; viability at 24 h, 0.01 µM [12]: 98.6%; viability at 24 h, 1 µM [15]: 71.2%; viability at 24 h, 0.1 µM [16]: 71.7%; inhibition [21]: > 90%; IC50 [18]: > 33 µM; inhibition [19]: Active
11 | Cc1nc2ccccc2nc1S(=O)(=O)CC(=O)NC(=O)Nc1ccc(F)cc1 | – | inactive | – | – | –
12 | CCNC(=O)NC(=O)CSc1nc2ccccc2nc1C | inactive | inactive | – | – | inhibition [22]: 60%
13 | Cc1ccc(F)cc1NC(=O)NC(=O)CSc1nc2ccccc2nc1C | 89% | – | – | – | –
14 | Cc1nc2ccccc2nc1SCC(=O)NC(=O)N1CCc2ccccc21 | – | inactive | – | – | –
15 | Cc1ccc(NC(=O)NC(=O)CSc2nc3ccccc3nc2C)c(C)c1 | – | – | 62% | 100 | –
16 | Cc1ccc(NC(=O)NC(=O)CSc2nc3ccccc3nc2C)cn1 | 87% | – | – | – | –
17 | Cc1ccc(NC(=O)NC(=O)CSc2nc3ccccc3nc2C)cc1C | – | – | 29% | 97 | –
18 | Cc1nc2ccccc2nc1SCC(=O)NC(=O)Nc1ccc(Cl)cc1 | 82% | – | – | – | –
19 | Cc1cc(C)cc(NC(=O)NC(=O)CSc2nc3ccccc3nc2C)c1 | – | – | 44% | 100 | –
20 | Cc1nc2ccccc2nc1SCC(=O)NC(=O)N(C)c1ccccc1 | – | inactive | – | – | –
21 | Cc1nc2ccccc2nc1SCC(=O)NC(=O)Nc1ccc(F)cc1 | – | 80% | – | – | –
22 | Cc1ccc(C)c(NC(=O)NC(=O)CSc2nc3ccccc3nc2C)c1 | – | – | 68% | 100 | t1/2 [7]: 77.2 min; Intrinsic clearance [13]: 0.71 mL/min; t1/2 [14]: 1.9 min; IC50 [18]: > 33 µM
23 | Cc1nc2ccccc2nc1SCC(=O)NC(=O)Nc1cccc(Cl)c1 | – | – | – | 49 | –
24 | Cc1ccc(NC(=O)NC(=O)COc2nc3ccccc3nc2C)cc1 | 70% | – | – | – | –
25 | COc1cccc(NC(=O)NC(=O)CSc2nc3ccccc3nc2C)c1 | 60% | 100% | inactive | 98 | –
